The supplement of paper PMC10307832

Assays:
Assay in all cases: relative viability (nuclei count vs DMSO), 5 days (fraction); higher = more cells survive
[1] = compound: O[C@@H](COc1cccc2ncccc12)CN1CCN([C@@H]2c3ccccc3[C@@H]3[C@H](c4ccccc42)C3(F)F)CC1 [Zosuquidar] + C[C@]1(O)C[C@@H](c2nc(-c3ccc4ccc(-c5ccccc5)nc4c3)c3c(N)nccn32)C1 [Linsitinib] (partner 1 µM)
Method in brief: (§1)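 Values are medians from duplicate plates. Each reflects relative viability, defined as the nuclei count of treated wells over that of vehicle wells. Lung cancer cell lines in 1536-well plates were pin-tool dosed one day after seeding with one drug alone or with a fixed anchor-drug dose plus five library-drug doses (not always all listed) in √10 steps, then fixed, stained and imaged at 4× after 5 days.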

[2] = compound: COc1cc2nccc(Oc3ccc(NC(=O)C4(C(=O)Nc5ccc(F)cc5)CC4)cc3)c2cc1OC [Cabozantinib] + O=C(CCCCCCC(=O)Nc1ccccc1)NO [Vorinostat] (partner 1 µM)
Method in brief: as §1

[3] = compound: COc1cc2nccc(Oc3ccc(NC(=O)C4(C(=O)Nc5ccc(F)cc5)CC4)cc3)c2cc1OC [Cabozantinib] + CC(=O)c1c(C)c2cnc(Nc3ccc(N4CCNCC4)cn3)nc2n(C2CCCC2)c1=O [Palbociclib] (partner 0.5 µM)
Method in brief: as §1

[4] = compound: COc1cc2nccc(Oc3ccc(NC(=O)C4(C(=O)Nc5ccc(F)cc5)CC4)cc3)c2cc1OC [Cabozantinib] + C[C@]1(O)C[C@@H](c2nc(-c3ccc4ccc(-c5ccccc5)nc4c3)c3c(N)nccn32)C1 [Linsitinib] (partner 1 µM)
Method in brief: as §1

Cell Line	relative viability ([1]; first compound 0.01 µM)	relative viability ([1]; first compound 0.03162 µM)	relative viability ([1]; first compound 0.1 µM)	relative viability ([1]; first compound 0.3162 µM)	relative viability ([1]; first compound 1 µM)	relative viability ([2]; first compound 0.02 µM)	relative viability ([2]; first compound 0.06325 µM)	relative viability ([2]; first compound 0.2 µM)	relative viability ([2]; first compound 0.6325 µM)	relative viability ([2]; first compound 2 µM)	relative viability ([3]; first compound 0.02 µM)	relative viability ([3]; first compound 0.06325 µM)	relative viability ([3]; first compound 0.2 µM)	relative viability ([3]; first compound 0.6325 µM)	relative viability ([3]; first compound 2 µM)	relative viability ([4]; first compound 0.02 µM)	relative viability ([4]; first compound 0.06325 µM)	relative viability ([4]; first compound 0.2 µM)	relative viability ([4]; first compound 0.6325 µM)	relative viability ([4]; first compound 2 µM)
SK-MES-1	1.01	1.08	0.991	0.979	1.1	1.06	1.27	1.16	1.11	1.16	0.34	0.305	0.379	0.39	0.298	1.12	1.1	0.988	1.12	1.06
HCC-366	0.641	0.682	0.641	0.597	0.783	0.309	0.381	0.374	0.378	0.429	0.491	0.503	0.399	0.364	0.451	0.772	0.649	0.703	0.637	0.554
NCI-H3122	1.01	0.939	0.938	1.07	0.959	0.992	1	1.07	1.11	1.02	0.183	0.179	0.168	0.192	0.211	1.01	1.03	1.08	0.949	1
COR-L 105	0.889	0.975	0.869	1.15	1.05	0.847	1.05	0.734	0.839	0.89	0.409	0.4	0.378	0.411	0.413	0.945	1.04		0.937	0.839
201T	1.06	1.01	0.892	0.961	1.01	0.77	1.03	0.962	0.932	0.969	0.352	0.342	0.332	0.371	0.384	1.08	1.04	0.993	1.01	0.973
NCI-H2228	0.659	0.922	0.552	0.515	0.685	0.732	1.05	0.763	0.74	0.707	0.588	1.08	0.802	0.941	0.837	0.939	1.32	0.611	0.716	0.542
LC-2-ad	0.776	0.857	0.873	0.797	0.895	0.724	0.806	0.767	0.682	0.522	0.569	0.569	0.472	0.367	0.341	0.846	0.795	0.659	0.56	0.461
NCI-H2087	0.916	1.03	1.01	0.987	0.89	0.752	0.781	0.563	0.49	0.715	0.187	0.302	0.273	0.249	0.253	1.03	1	1.06	1.02	1
